The target in the assay is T1, AR F877L/T878A (Homo sapiens, UniProt P10275, F877L/T878A).
T1 construct: expressed in transfected cells; host or cells: T-REx-293
Kind of assay: AR degradation in T-Rex-293 cell line, F877L/T878A. The format is cell-based. Conditions: T-Rex-293, ELISA. An excerpt:
FIG. 3 is a graph showing Compound A's ability to degrade clinically relevant mutated forms AR.
To assess the ability of Compound A to degrade variants of the AR, vectors expressing wild-type AR or mutant AR proteins harboring clinically observed mutations in the ligand binding domain (13 with single amino acid changes or 4 with 2 amino acid changes) (Azad A. A., Volik S. V., Wyatt A. W., et al. Androgen receptor gene aberrations in circulating cell-free DNA: biomarkers of therapeutic resistance in castration-resistant prostate cancer. Clin Cancer Res. 2015; 21:2315-2324; Robinson D., Van Allen E. M., Wu Y. M., et al. Integrative clinical genomics of advanced prostate cancer. Cell. 2015; 161:1215-1228; Ledet E. M., Lilly M. B., Sonpavde G., et al. Comprehensive analysis of AR alterations in circulating tumor DNA from patients with advanced prostate cancer. Oncologist.

T1 sequence (P10275 whole entry F877L/T878A): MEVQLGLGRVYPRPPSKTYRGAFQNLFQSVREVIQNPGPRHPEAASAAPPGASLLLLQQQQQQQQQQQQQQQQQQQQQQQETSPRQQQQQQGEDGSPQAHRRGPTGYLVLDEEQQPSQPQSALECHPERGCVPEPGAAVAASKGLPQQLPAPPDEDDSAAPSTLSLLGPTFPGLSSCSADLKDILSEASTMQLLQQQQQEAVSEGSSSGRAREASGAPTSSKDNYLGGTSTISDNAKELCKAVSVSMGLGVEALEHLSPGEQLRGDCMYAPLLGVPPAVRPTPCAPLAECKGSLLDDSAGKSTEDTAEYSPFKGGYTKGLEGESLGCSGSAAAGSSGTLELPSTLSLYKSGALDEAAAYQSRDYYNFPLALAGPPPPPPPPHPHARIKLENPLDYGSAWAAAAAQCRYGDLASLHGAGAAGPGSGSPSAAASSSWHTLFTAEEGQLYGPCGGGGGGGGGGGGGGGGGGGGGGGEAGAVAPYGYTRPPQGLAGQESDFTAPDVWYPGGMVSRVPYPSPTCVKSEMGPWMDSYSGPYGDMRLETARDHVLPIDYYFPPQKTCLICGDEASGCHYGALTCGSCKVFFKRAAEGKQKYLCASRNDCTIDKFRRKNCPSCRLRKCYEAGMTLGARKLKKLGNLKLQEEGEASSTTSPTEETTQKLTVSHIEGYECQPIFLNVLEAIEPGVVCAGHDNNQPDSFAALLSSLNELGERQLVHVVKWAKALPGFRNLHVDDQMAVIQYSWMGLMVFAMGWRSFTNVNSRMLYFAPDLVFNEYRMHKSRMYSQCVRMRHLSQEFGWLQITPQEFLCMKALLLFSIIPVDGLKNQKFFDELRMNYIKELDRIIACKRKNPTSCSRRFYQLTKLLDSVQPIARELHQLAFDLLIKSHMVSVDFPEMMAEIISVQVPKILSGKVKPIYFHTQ

For the molecule `COc1cc(O[C@H]2C(C)(C)[C@H](NC(=O)c3ccc(N4CCC(CN5CCN(c6ccc(C(=O)N[C@H]7CCC(=O)NC7=O)c(F)c6)CC5)CC4)cc3)C2(C)C)ccc1C#N` [Compound A, 4-(4-((1-(4-(((1R,3R)-3-(4-cyano-3-methoxyphenoxy)-2,2,4,4-tetramethylcyclobutyl)carbamoyl)phenyl)piperidin-4-yl)methyl)piperazin-1-yl)-N—((S)-2,6-dioxopiperidin-3-yl)-2-fluorobenzamide], the DC50 (usually the concentration giving 50% degradation) turned out to be 7 nM.

The values are drawn from patent US20240180900A1, “COMPOUNDS AND METHODS FOR THE TARGETED DEGRADATION OF ANDROGEN RECEPTOR” (Arvinas Operations, Inc., priority 2022, published 2024).
